Measured values as given in patent US10358469B2, “Methods and pharmaceutical compositions for the treatment of cancer” (INSERM (INSTITUT NATIONAL DE LA SANTÉ ET DE LA RECHERCHE …, priority 2014, dated 2019).

Tests used:
D3H2LN cells = experiment: Proliferation of D3H2LN cells (not showed); format: cell-based
[1] = Toxicity of peptide injection in nude mice; details: i.p. twice per week for 4 weeks
Procedure: Nude mice were injected intraperitoneally twice a week for 4 weeks with normal saline solution or the indicated doses of Antp-AAC-11-LZ (363-399) peptide (n=3-4 mice per group) and were monitored daily for body weight (mean±s.e.m).
Nude mice were injected intraperitoneally twice a week for 4 weeks with normal saline solution or the indicated doses of Antp-AAC-11-LZ (377-399) peptide (n=3-4 mice per group) and were monitored daily for body weight (mean±s.e.m).
We first evaluated the toxicity of the Antp-AAC-11-LZ (363-399) peptide in nude mice that were injected intraperitoneally twice per week for 4 weeks with the Antp-AAC-11-LZ (363-399) peptide or normal saline solution (dose range: 0.8-4.8 mg peptide/kg body weight; n=3-4 mice per group).
We first evaluated the toxicity of the Antp-AAC-11-LZ (377-399) peptide in nude mice that were injected intraperitoneally twice per week for 4 weeks with the Antp-AAC-11-LZ (377-399) peptide or normal saline solution (dose range: 1-6 mg peptide/kg body weight; n=3-4 mice per group).

[2] = system: Karpas 1106, SU-DHL-5, SeAx and HUT-78 cells; experiment: Cell viability (MTS) of hematologic cancer cell lines under low serum; format: cell-based; details: increasing concentrations, 24 hours, low serum conditions (0.5-5%), FIG. 1A
Procedure: (A) Karpas 1106, SU-DHL-5, SeAx and HUT-78 cells were plated at a densities of 6×10^3 in 96 well plates (100 μL total volume per well) and treated for 24 hours in a 37° C. incubator (5% CO2) with increasing concentrations of the Antp-AAC-11-LZ (363-399). 20 μL MTS reagent was then added to each well and plates were incubated for an additional 4 hours. Absorbance was measured at 490 nm using a 96-well plate reader. The extent to which the Antp-AAC-11-LZ (363-399) peptide inhibited cell proliferation was calculated as a percentage of the absorbance in each well containing the Antp-AAC-11-LZ (363-399) peptide relative to wells containing no peptide (negative control). […]
Viability of cells cultured in the 96-well culture plates was assessed by measuring mitochondrial dehydrogenase activity, using the colorimetric CellTiter 96® AQueous One Solution Cell Proliferation Assay (Promega), according to the manufacturer′ instructions. […] The color can then be quantified using a simple colorimetric assay. The results are read on a multiwall scanning spectrophotometer (ELISA reader).
The inventors evaluated the capacity of the Antp-AAC-11-LZ (363-399) peptide to induce cell death a panel of hematologic and solid tumor cell lines, both P53 positive and P53 negative, derived from different tissues of origin, under low serum conditions (0.5-5%). […]

A549 cells = experiment: Lactate dehydrogenase (LDH) release, A549 cells; format: cell-based, human; details: 10 μM
Procedure: (A) SeAx or HaCat cells cultured in the absence of 10% FBS were left untreated or treated with 4 μM or 10 μM, respectively, of the Antp-AAC-11-LZ (363-399) peptide for the indicated durations. Cells were then analyzed by flow cytometry for PI staining. The results represent the mean number of PI-positive cells±S.D. from at least three independent experiments. (B) A549 and HaCat cells were plated at a densities of 4.5×10^3 in 96 well plates (100 μL total volume per well) and allowed to attach overnight in a 37° C. incubator (5% CO2). Media was removed from cells and replaced with media containing 10 μM Antp-AAC-11-LZ (363-399) peptide (100 μL total volume per well) peptide and the plates were incubated for the indicated durations. Lactate dehydrogenase (LDH) activity released in the culture medium was then assessed and data expressed as a percentage of the maximal level (Max) of LDH activity determined after total cell lysis±S.D. from at least three independent experiments.
(A) SeAx cultured in the absence of 10% FBS were left untreated or treated with 4 μM of the indicated Antp-AAC-11-LZ peptides for various times. Cells were then analyzed by flow cytometry for PI staining. The results represent the mean number of PI-positive cells±S.D. (B) A549 cells were plated at a densities of 4.5×10^3 in 96 well plates (100 μL total volume per well) and allowed to attach overnight in a 37° C. incubator (5% CO2). Media was removed from cells and replaced with media containing the indicated Antp-AAC-11-LZ peptides at 10 μM (100 μL total volume per well) peptide and the plates were incubated for the indicated durations. Lactate dehydrogenase (LDH) activity released in the culture medium was then assessed and data expressed as a percentage of the maximal level (Max) of LDH activity determined after total cell lysis±S.D.

## Ac-RQIKIWFKKQNRRMKWKKAKLNAEKLKDFKIRLQYFARGLQVYIRQLRLALQGKT-NH2 [Antp-AAC-11-LZ (363-399)]
D3H2LN cells
  proliferation at the concentrations used for migration: neither the Antp-AAC-11-LZ (363-399) or TAT-AAC-11-LZ (363-399) peptides impaired proliferation
[1]; 0.8-4.8 mg peptide/kg body weight
  mortality: No mice died
[1]; 0.8-4.8 mg peptide/kg body weight, FIG. 8A
  body weight difference between groups: no significant difference
[1]; 0.8-4.8 mg peptide/kg, end of experiment
  toxicity to kidney, lungs, heart, liver, pancreas and spleen: no obvious toxicity
[2]
  loss of cellular viability: drastic loss of cellular viability
A549 cells; 5 minutes, relative to maximal LDH release (0.8% Triton X-100)
  LDH release: ~40%
A549 cells; 1 hour, compared to maximum LDH release (0.8% Triton X-100)
  LDH release: 80%
A549 cells; time course
  LDH release into cell supernatants, in words: drastic increase
